Laboratory results reported in US11524968B2, “Heterocyclic compound as a protein kinase inhibitor” (HK inno.N Corporation, priority 2017, dated 2022).

Target: JAK1 (Homo sapiens (Human), UniProt P23458)
Test: Analysis of JAK1 activity inhibition ability (ADP-Glo Kinase Assay)
Assay type: biochemical
Details: JAK1 enzyme, ADP-Glo luminescence, ATP 250 uM, IRS-itide substrate, 30° C. 40 minutes; read-out: IC50
Summary of the method: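 JAK1 enzyme, IRS-itide substrate (40 ng/mL) and 250 uM ATP, both as prepared in kinase buffer (Tris-HCl pH 7.5, MgCl2, BSA, DTT), reacted with compound 40 min at 30 °C. ADP formed was detected by ADP-Glo luminescence; IC50 is the concentration giving 50% inhibition versus control.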

JAK1, sequence (P23458 whole entry): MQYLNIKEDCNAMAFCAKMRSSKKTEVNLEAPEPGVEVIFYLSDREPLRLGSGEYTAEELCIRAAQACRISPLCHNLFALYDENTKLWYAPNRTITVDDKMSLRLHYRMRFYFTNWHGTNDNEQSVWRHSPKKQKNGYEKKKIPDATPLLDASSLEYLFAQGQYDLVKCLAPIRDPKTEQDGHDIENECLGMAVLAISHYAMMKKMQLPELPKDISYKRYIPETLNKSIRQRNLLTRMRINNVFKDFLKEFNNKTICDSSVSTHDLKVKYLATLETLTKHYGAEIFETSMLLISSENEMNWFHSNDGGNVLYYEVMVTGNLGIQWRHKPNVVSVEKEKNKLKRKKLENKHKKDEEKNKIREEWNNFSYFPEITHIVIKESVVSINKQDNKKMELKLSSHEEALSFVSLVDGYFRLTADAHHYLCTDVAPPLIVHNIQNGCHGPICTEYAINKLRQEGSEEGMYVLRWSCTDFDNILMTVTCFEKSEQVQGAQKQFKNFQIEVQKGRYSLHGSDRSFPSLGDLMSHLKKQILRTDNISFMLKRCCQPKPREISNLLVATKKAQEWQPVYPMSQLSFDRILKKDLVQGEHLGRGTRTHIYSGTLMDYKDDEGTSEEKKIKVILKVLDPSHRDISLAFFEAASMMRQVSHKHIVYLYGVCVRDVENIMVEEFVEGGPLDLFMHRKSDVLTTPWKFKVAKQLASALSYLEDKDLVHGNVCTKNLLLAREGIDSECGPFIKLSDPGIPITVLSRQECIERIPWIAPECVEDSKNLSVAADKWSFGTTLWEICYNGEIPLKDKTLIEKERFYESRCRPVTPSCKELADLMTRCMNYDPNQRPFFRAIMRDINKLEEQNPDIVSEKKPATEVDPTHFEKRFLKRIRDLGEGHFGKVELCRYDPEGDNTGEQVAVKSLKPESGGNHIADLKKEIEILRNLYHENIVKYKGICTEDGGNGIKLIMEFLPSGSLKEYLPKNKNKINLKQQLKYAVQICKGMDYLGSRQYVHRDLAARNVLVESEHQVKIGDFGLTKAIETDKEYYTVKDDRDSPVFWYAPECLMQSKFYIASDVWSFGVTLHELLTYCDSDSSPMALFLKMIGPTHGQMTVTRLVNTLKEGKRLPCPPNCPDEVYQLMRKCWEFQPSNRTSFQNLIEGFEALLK

SMILES | IC50
N#C[C@H]1CCCN1C(=O)CN1C2CCC1CN(c1cc(NC(=O)C3CC3)nc3[nH]ccc13)C2 [Example 703, N-(4-(8-(2-((R)-2-cyanopyrrolidin-1-yl)-2-oxoethyl)-3,8-diazabicyclo[3.2.1]octan-3-yl)-1H-pyrrolo[2,3-b]pyridin-6-yl)cyclopropanecarboxamide] | > 200 nM
O=C(Nc1nc(N2CC3CCC(C2)N3CC(=O)N2CCS(=O)(=O)CC2)c2cc[nH]c2n1)C1CC1 [Example 704, N-(4-(8-(2-(1,1-dioxidothiomorpholino)-2-oxoethyl)-3,8-diazabicyclo[3.2.1]octan-3-yl)-7H-pyrrolo[2,3-d]pyrimidin-2-yl)cyclopropanecarboxamide] | > 200 nM
C[C@@H]1CN(C(=O)CC#N)CC=C1c1cc(N)nc2[nH]ccc12 [Example 705, (S)-3-(4-(6-amino-1H-pyrrolo[2,3-b]pyridin-4-yl)-3-methyl-3,6-dihydropyridin-1 (2H)-yl)-3-oxopropanenitrile] | > 200 nM
CCS(=O)(=O)Nc1ccc(-c2cc(NC(C)=O)nc3[nH]ccc23)cc1F [Example 710, N-(4-(4-(ethylsulfonamido)-3-fluorophenyl)-1H-pyrrolo[2,3-b]pyridin-6-yl)acetamide] | 20 to 200 nM
CCS(=O)(=O)Nc1ccc(-c2cc(NC(=O)C(C)C)nc3[nH]ccc23)cc1F [Example 711, N-(4-(4-(ethylsulfonamido)-3-fluorophenyl)-1H-pyrrolo[2,3-b]pyridin-6-yl)isobutyramide] | > 200 nM
CCCC(=O)Nc1cc(-c2ccc(NS(=O)(=O)CC)c(F)c2)c2cc[nH]c2n1 [Example 712, N-(4-(4-(ethylsulfonamido)-3-fluorophenyl)-1H-pyrrolo[2,3-b]pyridin-6-yl)butyramide] | > 200 nM
CCS(=O)(=O)Nc1ccc(-c2cc(NCC3CC3)nc3[nH]ccc23)cc1F [Example 713, N-(4-(6-((cyclopropylmethyl)amino)-1H-pyrrolo[2,3-b]pyridin-4-yl)-2-fluorophenyl)ethanesulfonamide] | > 200 nM
CCS(=O)(=O)Nc1ccc(-c2cc(N/C(=N\C)C3CC3)nc3[nH]ccc23)cc1 [Example 714, (Z)—N-(4-(4-(ethylsulfonamido)phenyl)-1H-pyrrolo[2,3-b]pyridin-6-yl)-N′-methylcyclopropanecarboximidamide] | > 200 nM
CCS(=O)(=O)Nc1ccc(-c2cc(NC(=S)C3CC3)nc3[nH]ccc23)cc1 [Example 715, N-(4-(4-(ethylsulfonamido)phenyl)-1H-pyrrolo[2,3-b]pyridin-6-yl)cyclopropanecarbothioamide] | 20 to 200 nM
CCS(=O)(=O)Nc1ccc(-c2cc(NS(=O)(=O)C3CC3)nc3[nH]ccc23)cc1F [Example 716, N-(4-(4-(ethylsulfonamido)-3-fluorophenyl)-1H-pyrrolo[2,3-b]pyridin-6-yl)cyclopropanesulfonamide] | > 200 nM
O=C(Nc1cc(-c2ccc(CN3CCS(=O)(=O)CC3)cc2)c2cc[nH]c2n1)NC1CC1 [Example 717, 1-cyclopropyl-3-(4-(4-((1,1-dioxidothiomorpholino)methyl)phenyl)-1H-pyrrolo[2,3-b]pyridin-6-yl)urea] | 20 to 200 nM
CN(C)c1nc(-c2ccc(NS(=O)(=O)c3ccc(F)c(F)c3)cc2)c2cc[nH]c2n1 [Example 718, N-(4-(2-(dimethylamino)-7H-pyrrolo[2,3-d]pyrimidin-4-yl)phenyl)-3,4-difluorobenzenesulfonamide] | > 200 nM
CCS(=O)(=O)Nc1ccc(-c2nc(Nc3ccccc3)nc3[nH]ccc23)cc1F [Example 719, N-(2-fluoro-4-(2-(phenylamino)-7H-pyrrolo[2,3-d]pyrimidin-4-yl)phenyl)ethanesulfonamide] | 20 to 200 nM
CCS(=O)(=O)Nc1ccc(-c2nc(Nc3ccccc3)nc3[nH]ccc23)cc1 [Example 720, N-(4-(2-(phenylamino)-7H-pyrrolo[2,3-d]pyrimidin-4-yl)phenyl)ethanesulfonamide] | 20 to 200 nM
N#CCC(=O)N1C2CCC1CN(c1nc(Nc3ccccc3)nc3[nH]ccc13)C2 [Example 721, 3-oxo-3-(3-(2-(phenylamino)-7H-pyrrolo[2,3-d]pyrimidin-4-yl)-3,8-diazabicyclo[3.2.1]octan-8-yl)propanenitrile] | 20 to 200 nM
